In patent US9096608B2, “Pharmaceutically active pyrazolo-triazine derivatives” (LEAD DISCOVERY CENTER GMBH, priority 2012, dated 2015):
Read-outs that look alike come from different tables or passages of the source.

Assays:
Assay type in all cases: biochemical
[1] = target: T1, CDK9/Cyclin T1 (Homo sapiens, UniProt P50750); assay: CDK9 Enzymatic Activity Assay (Lance Kinase Activity Assay, FRET); settings: for CDK9: Selectivity of CDK7 inhibition over CDK9 inhibition [fold]: Table 5B, symbols per IC50 ranges of b615
T1 construct: purchased Invitrogen
T1 sequence (P50750 whole entry): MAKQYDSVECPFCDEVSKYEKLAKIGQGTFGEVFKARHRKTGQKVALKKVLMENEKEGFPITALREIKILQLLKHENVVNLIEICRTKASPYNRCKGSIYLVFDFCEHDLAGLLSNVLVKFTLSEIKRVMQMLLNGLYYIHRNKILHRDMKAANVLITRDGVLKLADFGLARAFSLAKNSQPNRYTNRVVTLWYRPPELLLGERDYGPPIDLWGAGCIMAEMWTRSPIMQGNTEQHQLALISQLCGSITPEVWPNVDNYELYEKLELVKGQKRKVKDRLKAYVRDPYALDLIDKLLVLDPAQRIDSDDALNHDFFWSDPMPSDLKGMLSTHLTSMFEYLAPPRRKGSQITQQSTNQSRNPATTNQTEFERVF
T1 sequence (O60563 whole entry partner): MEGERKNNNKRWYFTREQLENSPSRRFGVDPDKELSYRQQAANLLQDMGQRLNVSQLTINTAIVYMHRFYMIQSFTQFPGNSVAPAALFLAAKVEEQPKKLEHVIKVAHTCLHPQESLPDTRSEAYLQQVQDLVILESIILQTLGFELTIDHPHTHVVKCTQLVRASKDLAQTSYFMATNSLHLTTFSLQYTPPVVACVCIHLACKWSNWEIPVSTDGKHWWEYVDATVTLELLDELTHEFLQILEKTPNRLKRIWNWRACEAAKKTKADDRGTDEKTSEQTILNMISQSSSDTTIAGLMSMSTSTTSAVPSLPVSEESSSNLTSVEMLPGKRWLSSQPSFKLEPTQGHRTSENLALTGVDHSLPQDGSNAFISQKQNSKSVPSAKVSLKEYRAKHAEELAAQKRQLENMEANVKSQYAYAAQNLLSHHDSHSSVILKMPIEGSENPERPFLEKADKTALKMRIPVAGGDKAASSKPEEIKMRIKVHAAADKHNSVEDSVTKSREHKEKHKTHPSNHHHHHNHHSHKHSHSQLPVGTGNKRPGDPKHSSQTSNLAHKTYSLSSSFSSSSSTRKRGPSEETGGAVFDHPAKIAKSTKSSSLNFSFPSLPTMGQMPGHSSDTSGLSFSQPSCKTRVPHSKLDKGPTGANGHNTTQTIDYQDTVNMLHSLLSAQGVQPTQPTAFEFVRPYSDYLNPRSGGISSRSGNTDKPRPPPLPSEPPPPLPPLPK
In short: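 TR-FRET detection of ULight-MBP substrate phosphorylation by CDK9/cyclin T1 using a Eu-anti-phospho-MBP antibody, in 50 mM HEPES pH 7.5, 10 mM MgCl2, 1 mM EGTA, 2 mM DTT, 0.01% Tween-20. Kinase reaction 1 h at room temperature, then EDTA detection buffer for 1 h before reading.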

[2] = target: T2, CDK2/CycA (Homo sapiens, UniProt P24941); assay: CDK2 Enzymatic Activity Assay (Lance Kinase Activity Assay, FRET); settings: for CDK2 IC50 range class: Table 5B, symbols per IC50 ranges of b615
T2 construct: purchased Proqinase
Protocol: This protocol describes how the Lance Kinase Activity Assay was performed to determine IC50 values of compounds of general formula (I) against CDK/Cyclin complexes. The principle behind this enzymatic assay is based upon the phosphorylation of the Ulight-Peptide Substrat. It is detected by using a specific EU-labeled anti-phospho peptide antibody.
Binding of an inhibitor to the kinase prevents phosphorylation of the ULlight-MBP Substrat, resulting in a loss of FRET.
CDK2 Enzymatic Activity Assay
The compounds of general formula (I) exemplary summarized in Table 1 were diluted from a 10 mM DMSO stock solution 1:10 in a total volume of 15 μl DMSO. This compound predilution was then serial diluted 1:3 over 8 steps in DMSO and briefly spun down. Each compound solution was now diluted 1:20 in Enzymatic Buffer (HEPES: 50 mM, pH: 7.5; MgCl2: 10 mM; EGTA: 1 mM; DTT: 2 mM; Tween-20: 0.01%), mixed thoroughly and spun down.
For positive controls, 2 μl of DMSO working solution were mixed with 6 μl CDK2/CycA/substrate working solution and 2 μl ATP working solution. Positive and negative controls were calculated from at least 8 different wells. The 384 well plates were mixed in a Teleshaker plate mixer (Beckman Coulter, Brea, Calif., USA) at 2000 rpm for 40 sec, and incubated for 1 h at room temperature before addition of 10 μl LANCE Detection Buffer (EDTA: […]; Eu-Anti-P-MBP: 4 nM) per well. Plates were mixed in a Teleshaker plate mixer (Beckman Coulter, Brea, Calif., USA) at 2000 rpm for […], followed by incubation with Detection Buffer for 1 h, and reading. […] IC50 values were determined from the sigmoidal dose response curves with the software Quattro Workflow (Quattro GmbH, Munich, Germany).

[3] = target: T3, CDK7/CycH/Mat1 (Homo sapiens, UniProt P50613); assay: CDK7 Enzymatic Activity Assay (Lance Kinase Activity Assay, FRET)
T3 construct: purchased Carna
T3 sequence (P50613 whole entry): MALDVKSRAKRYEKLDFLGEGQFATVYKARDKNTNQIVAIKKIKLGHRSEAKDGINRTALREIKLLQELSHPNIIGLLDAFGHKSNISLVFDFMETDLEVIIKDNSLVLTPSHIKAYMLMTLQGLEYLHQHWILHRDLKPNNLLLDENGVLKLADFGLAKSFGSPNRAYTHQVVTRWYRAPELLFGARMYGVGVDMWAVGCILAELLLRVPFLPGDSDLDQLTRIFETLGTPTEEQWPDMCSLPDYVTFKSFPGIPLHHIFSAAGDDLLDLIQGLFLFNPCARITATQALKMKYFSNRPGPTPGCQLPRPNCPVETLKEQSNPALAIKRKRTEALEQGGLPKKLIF
T3 sequence (P51946 whole entry partner): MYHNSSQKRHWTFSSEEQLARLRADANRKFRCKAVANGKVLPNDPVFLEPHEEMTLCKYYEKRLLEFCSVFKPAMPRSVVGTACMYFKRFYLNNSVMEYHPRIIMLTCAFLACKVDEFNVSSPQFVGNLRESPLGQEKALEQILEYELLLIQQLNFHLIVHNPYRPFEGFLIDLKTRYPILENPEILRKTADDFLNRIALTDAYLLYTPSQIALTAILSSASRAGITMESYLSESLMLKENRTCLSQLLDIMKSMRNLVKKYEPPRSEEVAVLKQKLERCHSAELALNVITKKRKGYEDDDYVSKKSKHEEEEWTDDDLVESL
T3 sequence (P51948 whole entry partner): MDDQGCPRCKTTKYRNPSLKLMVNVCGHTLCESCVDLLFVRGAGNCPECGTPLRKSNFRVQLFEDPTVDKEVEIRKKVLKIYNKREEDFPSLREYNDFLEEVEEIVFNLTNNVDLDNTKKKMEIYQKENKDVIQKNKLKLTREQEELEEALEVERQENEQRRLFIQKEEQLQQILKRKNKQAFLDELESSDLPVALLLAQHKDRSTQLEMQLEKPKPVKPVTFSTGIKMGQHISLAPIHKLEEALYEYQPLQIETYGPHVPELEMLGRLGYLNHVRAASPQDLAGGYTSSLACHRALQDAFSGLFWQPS
In short: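 TR-FRET (LANCE) kinase assay with ULight-MBP peptide substrate and Eu-labelled anti-phospho antibody; compounds in 8-point 1:3 series in HEPES 50 mM pH 7.5, MgCl2 10 mM, EGTA 1 mM, DTT 2 mM, 0.01% Tween-20.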

[4] = Table 5A, 25 μM ATP final, read-out: CDK7: IC50 [mM] for CDK7 inhibition (the above defined ranges apply)

Row | CDK9: Selectivity of CDK7 inhibition over CDK9 inhibition [fold] [1] | CDK2 IC50 range class [2] | IC50 [3, 4] [nM] | Selectivity CDK7 over CDK9 [fold] ([1]; Table 7, lower part) | IC50 ([1]; Table 7, upper part) [nM] | Selectivity CDK7 over CDK2 [fold] ([2]; Table 7, lower part) | IC50 ([2]; Table 7, upper part) [nM] | IC50 ([3]; Table 7, lower part, read-out: IC50 [nM] CDK7) [nM] | IC50 ([3]; Table 7, upper part, read-out: IC50 [nM] CDK7) [nM] | Structure (SMILES)
1 | +++ (IC50>2500 nM) | +++ (IC50>2500 nM) | > 100 | – | – | – | – | – | – | COc1cccc([C@H](C)Nc2nc(CN(C)CCCN3CCCCC3)nc3c(C(C)C)cnn23)c1 [(XXIX-8), (S)-8-isopropyl-N-(1-(3-methoxyphenyl)ethyl)-2-((methyl(3-(piperidin-1-yl)propyl)amino)methyl)pyrazolo[1,5-a][1,3,5]triazin-4-amine]
2 | +++ (IC50>2500 nM) | +++ (IC50>2500 nM) | > 100 | – | – | – | – | – | – | COc1cccc([C@H](C)Nc2nc(OCCN3CCNCC3)nc3c(C(C)C)cnn23)c1 [(VII-bn), (S)-8-isopropyl-N-(1-(3-methoxyphenyl)ethyl)-2-(2-(piperazin-1-yl)ethoxy)pyrazolo[1,5-a][1,3,5]triazin-4-amine]
3 | +++ (IC50>2500 nM) | +++ (IC50>2500 nM) | 10 to 30 | – | – | – | – | – | – | CC(C)c1cnn2c(N[C@@H](C)c3ccccc3C(F)(F)F)nc(O[C@@H]3CCCNC3)nc12 [(VII-ah), 8-isopropyl-2-((R)-piperidin-3-yloxy)-N-((S)-1-(2-(trifluoromethyl)phenyl)ethyl)pyrazolo[1,5-a][1,3,5]triazin-4-amine]
4 | +++ (IC50>2500 nM) | +++ (IC50>2500 nM) | < 10 | 1475 | > 2500 | 1612 | > 2500 | < 10 | < 10 | COc1ccccc1[C@H](C)Nc1nc([S+]([O-])C2CCNCC2)nc2c(C(C)C)cnn12 (stereo partly drawn) [(X-c), 8-isopropyl-N-((S)-1-(2-methoxyphenyl)ethyl)-2-(piperidin-4-ylsulfinyl)pyrazolo[1,5-a][1,3,5]triazin-4-amine]

The remaining lines, values behind:

Row | Structure (SMILES) | CDK9: Selectivity of CDK7 inhibition over CDK9 inhibition [fold] [1] | CDK2 IC50 range class [2] | IC50 [3, 4] [nM] | Selectivity CDK7 over CDK9 [fold] ([1]; Table 7, lower part) | IC50 ([1]; Table 7, upper part) [nM] | Selectivity CDK7 over CDK2 [fold] ([2]; Table 7, lower part) | IC50 ([2]; Table 7, upper part) [nM] | IC50 ([3]; Table 7, lower part, read-out: IC50 [nM] CDK7) [nM] | IC50 ([3]; Table 7, upper part, read-out: IC50 [nM] CDK7) [nM]
5 | COc1cc(F)ccc1[C@H](C)Nc1nc(O[C@@H]2CCCNC2)nc2c(C(C)C)cnn12 [(VII-az), N-((S)-1-(4-fluoro-2-methoxyphenyl)ethyl)-8-isopropyl-2-((R)-piperidin-3-yloxy)pyrazolo[1,5-a][1,3,5]triazin-4-amine] | +++ (IC50>2500 nM) | +++ (IC50>2500 nM) | 30 to 100 | – | – | – | – | – | –
6 | CC(C)c1cnn2c(NC(C)c3cccc4ncccc34)nc(OC3CC4(CC(N)C4)C3)nc12 (stereo not drawn) [(VII-cc), 2-((6-aminospiro[3.3]heptan-2-yl)oxy)-8-isopropyl-N-(1-(quinolin-5-yl)ethyl)pyrazolo[1,5-a][1,3,5]triazin-4-amine] | +++ (IC50>2500 nM) | +++ (IC50>2500 nM) | 10 to 30 | – | – | – | – | – | –
7 | COc1cccc([C@H](C)Nc2nc(NC(CN)c3ccccc3)nc3c(C(C)C)cnn23)c1 (stereo partly drawn) [(VIII-z), N2-(2-amino-1-phenylethyl)-8-isopropyl-N4-((S)-1-(3-methoxyphenyl)ethyl)pyrazolo[1,5-a][1,3,5]triazine-2,4-diamine] | +++ (IC50>2500 nM) | +++ (IC50>2500 nM) | > 100 | – | – | – | – | – | –
8 | COc1cccc([C@H](C)Nc2nc(N3CCCC4(CCCCN4)C3)nc3c(C(C)C)cnn23)c1 (stereo partly drawn) [(VIII-ah), 8-isopropyl-N-((S)-1-(3-methoxyphenyl)ethyl)-2-(1,8-diazaspiro[5.5]undecan-8-yl)pyrazolo[1,5-a][1,3,5]triazin-4-amine] | +++ (IC50>2500 nM) | +++ (IC50>2500 nM) | < 10 | – | – | – | – | – | –
9 | COc1cccc([C@H](C)Nc2nc(N3CC(N4CCCC4=O)C3)nc3c(C(C)C)cnn23)c1 [(VIII-n), (S)-1-(1-(8-isopropyl-4-((1-(3-methoxyphenyl)ethyl)amino)pyrazolo[1,5-a][1,3,5]triazin-2-yl)azetidin-3-yl)pyrrolidin-2-one] | +++ (IC50>2500 nM) | +++ (IC50>2500 nM) | > 100 | – | – | – | – | – | –
